Measured values from patent US10053477B2, “Spirocyclic aryl phosphorus oxide and aryl phosphorus sulfide” (QILU PHARMACEUTICAL CO., LTD., priority 2014, dated 2018).
One block for each molecule: values may come before it.

Columns and labels:
ALK L1196M = target: T1, ALK L1196M (Homo sapiens, UniProt Q9UM73, L1196M); assay: ALK L1196M enzymatic inhibition (HTRF); assay type: biochemical; conditions: 30 μM ATP
T1 construct: purchased Carna Biosciences (Japan)
Method: (§1) Enzyme: ALK wild-type, ALK C1156Y and ALK L1196M supplied by Carna Biosciences (Japan), EGFR T790M/L858R supplied by Life technology (Madison, Wis.).
(§2) HTRF kit: supplied by Cis-Bio International, with Eu-marked TK1 antibody, XL665- and biotin-labelled TK1 polypeptide substrates.
Reaction buffer: 50 mM Hepes (pH7.5), 10 mM MgCl2, 0.01 mM NaV3VO4.
(§3) Incubation was carried out for 60 minutes at room temperature. Detection was by Envision.

[1] = test system: LU-01-0015 xenotransplantation (PDX) from lung cancer patients; assay: In vivo efficacy, LU-01-0015 xenotransplantation (PDX) from lung cancer patients; design: species or system BALB/c nude mice; conditions: 25 mg/kg orally everyday
Description: BALB/c nude mice, female, 6 to 8 weeks, about 18 to 22 g bodyweight, was kept in a special environment without pathogens, and a single ventilated cage (5 mice per cage). Beddings and water in all the cages were disinfected before use. […] 80 mice were supplied by Shanghai BK Laboratory Animal Co., LTD for study. Each mouse was subcutaneously implanted tumor tissue (20-30 mm^3) at right flank for growth of tumor. When the average tumor volume reached about 250-300 mm^3, the assay started. Test compounds were delivered orally everyday, 25 mg/kg. Tumor size was measured with two-dimensional caliper every 3 days, size was recorded by mm^3, and calculated by the following formula: V=V=0.5a×b2, where a and b are respectively the long diameter and short diameter length of the tumor. The antitumor efficacy was determined by dividing the average increased tumor volume in compound-treated animal by the average increased tumor volume in untreated animal.

ALK C1156Y = target: T2, ALK C1156Y (Homo sapiens, UniProt Q9UM73, C1156Y); assay: ALK C1156Y enzymatic inhibition (HTRF); assay type: biochemical; conditions: 30 μM ATP
T2 construct: purchased Carna Biosciences (Japan)
T2 sequence (Q9UM73 19-1620 C1156Y): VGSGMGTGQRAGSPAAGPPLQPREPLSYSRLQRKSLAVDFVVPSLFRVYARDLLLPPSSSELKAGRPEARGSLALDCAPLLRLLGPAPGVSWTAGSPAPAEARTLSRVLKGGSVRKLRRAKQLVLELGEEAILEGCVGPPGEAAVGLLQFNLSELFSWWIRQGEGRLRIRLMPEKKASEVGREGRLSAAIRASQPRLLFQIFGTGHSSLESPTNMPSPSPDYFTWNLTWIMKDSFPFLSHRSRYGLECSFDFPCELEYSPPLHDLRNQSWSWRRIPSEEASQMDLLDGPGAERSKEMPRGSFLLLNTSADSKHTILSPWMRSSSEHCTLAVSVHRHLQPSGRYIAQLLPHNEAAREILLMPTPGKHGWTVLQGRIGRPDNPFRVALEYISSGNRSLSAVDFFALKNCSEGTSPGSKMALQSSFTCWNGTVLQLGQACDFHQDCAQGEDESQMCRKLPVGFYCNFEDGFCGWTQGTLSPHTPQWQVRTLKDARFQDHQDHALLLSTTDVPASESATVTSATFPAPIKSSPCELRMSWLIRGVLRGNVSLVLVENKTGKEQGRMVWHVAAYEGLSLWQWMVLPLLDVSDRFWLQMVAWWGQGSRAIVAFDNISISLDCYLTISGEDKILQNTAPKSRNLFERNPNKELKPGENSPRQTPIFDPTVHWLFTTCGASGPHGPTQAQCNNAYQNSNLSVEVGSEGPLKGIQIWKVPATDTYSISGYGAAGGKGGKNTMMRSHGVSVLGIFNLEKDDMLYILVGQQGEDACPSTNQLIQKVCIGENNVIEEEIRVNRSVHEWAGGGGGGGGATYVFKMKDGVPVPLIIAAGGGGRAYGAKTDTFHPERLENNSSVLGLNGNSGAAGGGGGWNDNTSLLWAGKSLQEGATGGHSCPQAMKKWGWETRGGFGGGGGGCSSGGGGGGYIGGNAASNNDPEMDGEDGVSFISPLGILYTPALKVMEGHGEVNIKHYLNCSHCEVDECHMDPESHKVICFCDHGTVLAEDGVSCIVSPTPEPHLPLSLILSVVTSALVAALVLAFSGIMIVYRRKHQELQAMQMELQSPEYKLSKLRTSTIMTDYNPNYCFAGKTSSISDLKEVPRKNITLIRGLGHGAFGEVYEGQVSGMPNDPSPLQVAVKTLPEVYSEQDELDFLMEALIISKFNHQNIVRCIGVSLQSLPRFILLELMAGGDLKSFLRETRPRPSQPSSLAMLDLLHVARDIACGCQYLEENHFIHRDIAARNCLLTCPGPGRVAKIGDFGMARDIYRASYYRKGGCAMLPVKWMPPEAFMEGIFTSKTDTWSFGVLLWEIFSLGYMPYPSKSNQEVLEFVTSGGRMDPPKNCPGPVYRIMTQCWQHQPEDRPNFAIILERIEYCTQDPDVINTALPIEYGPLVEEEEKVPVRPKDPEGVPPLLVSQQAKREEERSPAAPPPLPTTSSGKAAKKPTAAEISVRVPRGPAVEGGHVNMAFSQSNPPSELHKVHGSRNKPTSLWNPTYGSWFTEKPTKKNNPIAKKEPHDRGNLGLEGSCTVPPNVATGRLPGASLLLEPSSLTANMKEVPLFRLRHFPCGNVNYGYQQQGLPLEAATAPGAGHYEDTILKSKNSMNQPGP
Method: as §1, §2
Reaction buffer: 50 mM Hepes (pH7.5), 10 mM MgCl2, 0.01 mM NaV3VO4. […] Reaction was reacted at room temperature for 60 minutes.
as §3

EGFR T790M/L858R = target: T3, EGFR T790M/L858R (Homo sapiens, UniProt P00533, L858R/T790M); assay: EGFR T790M/L858R enzymatic inhibition (HTRF); assay type: biochemical; conditions: 20 μM ATP
T3 construct: purchased Life technology (Madison, Wis.)
T3 sequence (P00533 25-1210 T790M/L858R): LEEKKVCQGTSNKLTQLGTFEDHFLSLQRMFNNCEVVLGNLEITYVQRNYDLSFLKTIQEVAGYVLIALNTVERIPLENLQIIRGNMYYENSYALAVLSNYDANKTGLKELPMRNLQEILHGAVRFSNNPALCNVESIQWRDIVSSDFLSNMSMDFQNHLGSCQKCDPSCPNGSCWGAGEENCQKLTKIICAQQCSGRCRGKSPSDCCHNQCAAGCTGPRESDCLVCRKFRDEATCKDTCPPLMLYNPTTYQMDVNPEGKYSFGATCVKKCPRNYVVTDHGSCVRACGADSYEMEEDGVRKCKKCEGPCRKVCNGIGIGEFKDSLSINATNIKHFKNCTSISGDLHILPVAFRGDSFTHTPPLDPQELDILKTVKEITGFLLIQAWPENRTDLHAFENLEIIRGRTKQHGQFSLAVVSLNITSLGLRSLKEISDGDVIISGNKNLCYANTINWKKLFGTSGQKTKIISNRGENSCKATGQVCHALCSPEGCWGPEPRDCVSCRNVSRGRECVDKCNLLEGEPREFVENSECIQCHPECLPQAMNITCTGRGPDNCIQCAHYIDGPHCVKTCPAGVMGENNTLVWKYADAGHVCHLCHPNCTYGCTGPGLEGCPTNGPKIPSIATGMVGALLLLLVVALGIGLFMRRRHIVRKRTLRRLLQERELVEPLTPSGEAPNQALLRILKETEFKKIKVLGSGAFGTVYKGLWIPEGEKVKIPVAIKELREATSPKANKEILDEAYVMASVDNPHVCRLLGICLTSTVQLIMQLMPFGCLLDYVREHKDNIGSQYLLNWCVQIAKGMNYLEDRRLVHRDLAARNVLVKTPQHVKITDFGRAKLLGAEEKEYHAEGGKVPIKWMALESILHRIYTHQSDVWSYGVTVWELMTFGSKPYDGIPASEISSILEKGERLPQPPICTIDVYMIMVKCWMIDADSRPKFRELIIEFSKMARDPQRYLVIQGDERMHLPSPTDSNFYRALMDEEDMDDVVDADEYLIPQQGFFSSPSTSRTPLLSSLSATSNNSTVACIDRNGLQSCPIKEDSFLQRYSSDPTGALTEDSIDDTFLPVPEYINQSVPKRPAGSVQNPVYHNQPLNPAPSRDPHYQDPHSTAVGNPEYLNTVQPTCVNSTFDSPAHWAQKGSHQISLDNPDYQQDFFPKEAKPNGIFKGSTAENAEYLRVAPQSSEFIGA
Method: as §1, §2
The compound to be tested is diluted at a gradient by 3 times thereby giving 11 gradients starting from […] to 0.017 nM for the final concentration.
10 μl EGFR T790M/L858R enzyme reaction mixture system: 0.08 nM EGFR T790M/L858R, 1 μM biotin-TK1 peptide, 20 μM ATP. Reaction buffer: 50 mM Hepes (pH7.5), 10 mM MgCl2, 0.01 mM NaV3VO4. The reaction plate was white Proxiplate 384-Plus plate (PerkinElmer). Reaction was reacted at room temperature for 60 minutes.
Detecting reaction: 10 μl testing reagent was added to the reaction plate, the final concentration of Antibody was 2 nM, XL665 was 62.5 nM. Incubation was carried out for 60 minutes at room temperature. Detection was by Envision.

ALK wild-type = target: T4, ALK wild-type (Homo sapiens, UniProt Q9UM73); assay: ALK wild-type enzymatic inhibition (HTRF); assay type: biochemical; conditions: 30 μM ATP
T4 construct: purchased Carna Biosciences (Japan)
T4 sequence (Q9UM73 19-1620): as the sequence (Q9UM73 19-1620 C1156Y) above, with Y1138C counted along it
Method: as §1, §2
10 μl wild-type ALK enzyme reaction mixture system: 0.5 nM wild-type ALK, 1 μM biotin-TK1 peptide, 30 μM ATP. Reaction buffer: 50 mM Hepes (pH7.5), 10 mM MgCl2, 0.01 mM NaV3VO4.
as §3

[2] = test system: LU-01-0319 xenotransplantation (PDX) from lung cancer patients; assay: In vivo efficacy, LU-01-0319 xenotransplantation (PDX) from lung cancer patients; design: species or system BALB/c nude mice; conditions: 10 mg/kg orally everyday
Description: BALB/c nude mice, female, 6 to 8 weeks, about 18 to 22 g bodyweight, was kept in a special environment without pathogens, and a single ventilated cage (5 mice per cage). Beddings and water in all the cages were disinfected before use. All the animal had free access to standard authorized commercially available lab diet. 80 mice were supplied by Shanghai BK Laboratory Animal Co., LTD for study. Each mouse was subcutaneously implanted tumor tissue (20-30 mm^3) at right flank for growth of tumor. When the average tumor volume reached about 250-300 mm^3, the assay started. Test compounds were delivered orally everyday, 10 mg/kg. Tumor size was measured with two-dimensional caliper every 3 days, size was recorded by mm^3, and calculated by the following formula: V=V=0.5a×b2, where a and b are respectively the long diameter and short diameter length of the tumor. The antitumor efficacy was determined by dividing the average increased tumor volume in compound-treated animal by the average increased tumor volume in untreated animal.

[3] = test system: LU-01-0319 Crizotinib resistance model; assay: In vivo anti-tumor efficacy, Crizotinib resistant LU-01-0319 xenotransplantation (PDX) tumor; design: species or system BALB/c nude mice
Description: LU-01-0319 xenotransplantation tumor models initially obtained from clinical sample through surgical resection were implanted into nude mice, which was defined as a batch of P0 (LU-01-0319-P0). The next batch was defined as P1 (LU-01-0319-P1) which was implanted tumors from P0. FP3 was regained from P2, the next batch was defined as FP4 which was implanted tumors from FP3. […] The continuous increasing tumors were defined as LU-01-0319 antitumor models. BALB/c nude mice, female, 6 to 8 weeks, about 18 to 22 g bodyweight, 75 mice were used for study, supplied by Shanghai BK Laboratory Animal Co., LTD. Tumour biopsies (about 30 mm^3) of LU-01-0319R FP6 were implanted subcutaneously on right side of each mouse for growth of tumor. […] Dose of Crizotinib was appropriately varied depending on the tumor size. When average tumor volume reached about ˜500 mm^3, the assay began. Once a day the compounds to be tested were orally administered. Tumor size were measured twice a week with a caliper at two dimensions, and calculated with the following formula: V=0.5a×b2, where a and b are respectively long diameter and short diameter of the tumor. The antitumor efficacy was determined by dividing the average increased tumor volume in compound-treated animal by the average increased tumor volume in untreated animal.

T1 sequence (Q9UM73 19-1620 L1196M): as the sequence (Q9UM73 19-1620 C1156Y) above, with Y1138C, L1178M counted along it

IC50 (ALK L1196M): 1 to 100 nM | IC50 (ALK C1156Y): 1 to 100 nM | IC50 (EGFR T790M/L858R): 1 to 100 nM | IC50 (ALK wild-type): 1 to 100 nM
Compound: COc1cc(N2CCC3(CC2)CN(C)C3)ccc1Nc1ncc(Cl)c(Nc2ccccc2P(C)(C)=O)n1 [Compound 5, (2-((5-Chloro-2-((2-methoxy-4-(2-methyl-2,7-diazaspiro[3.5]nonan-7-yl)phenyl)amino)pyrimidin-4-yl)amino)phenyl)dimethyl phosphine oxide]
Tumor volume ([1]; 3 days): 259 mm^3 | Tumor volume ([1]; 6 days): 214 mm^3 | Tumor volume ([1]; 9 days): 172 mm^3 | Tumor volume ([1]; 12 days): 117 mm^3 | Tumor volume ([1]; 16 days): 104 mm^3 | Tumor volume ([1]; 19 days): 123 mm^3 | Tumor volume ([1]; 23 days): 124 mm^3

IC50 (ALK L1196M): > 1000 nM | IC50 (ALK C1156Y): > 1000 nM | IC50 (EGFR T790M/L858R): > 1000 nM | IC50 (ALK wild-type): > 1000 nM
Compound: COc1cc(N2CCC3(CCN(C)CC3)CC2)ccc1Nc1ncc(Cl)c(N(C)c2ccccc2P(C)(C)=O)n1 [Compound 18, (2-((5-Chloro-2-((2-methoxy-4-(9-methyl-3,9-diazaspiro[5.5]undecan-3-yl)phenyl)amino)pyrimidin-4-yl)(methyl)amino)phenyl)dimethyl phosphine oxide]

IC50 (ALK L1196M): 101 to 1000 nM | IC50 (ALK C1156Y): 101 to 1000 nM | IC50 (EGFR T790M/L858R): 1 to 100 nM | IC50 (ALK wild-type): 101 to 1000 nM
Compound: COc1cc(N2CCC3(CCN(C)CC3)CC2)ccc1Nc1ncnc(Nc2ccccc2P(C)(C)=O)n1 [Compound 16, (2-((4-((2-Methoxy-4-(9-methyl-3,9-diazaspiro[5.5]undecan-3-yl)phenyl)amino)-1,3,5-triazin-2-yl)amino)phenyl)dimethyl phosphine oxide]

IC50 (ALK L1196M): 1 to 100 nM | IC50 (ALK C1156Y): 1 to 100 nM | IC50 (EGFR T790M/L858R): 1 to 100 nM | IC50 (ALK wild-type): 1 to 100 nM
Compound: COc1cc(N2CCC3(CC2)CCN(C(C)C)CC3)ccc1Nc1ncc(Cl)c(Nc2ccccc2P(C)(C)=O)n1 [Compound 10, (2-((5-Chloro-2-((4-(9-isopropyl-3,9-diazaspiro[5.5]undecan-3-yl)-2-methoxyphenyl)amino)pyrimidin-4-yl)amino)phenyl)dimethyl phosphine oxide]

IC50 (ALK L1196M): 101 to 1000 nM | IC50 (ALK C1156Y): 101 to 1000 nM | IC50 (EGFR T790M/L858R): 101 to 1000 nM | IC50 (ALK wild-type): 1 to 100 nM
Compound: COc1cc(N2CCC3(CN(C)C3)C2)ccc1Nc1ncc(Cl)c(Nc2ccccc2P(C)(C)=O)n1 [Compound 7, (2-((5-Chloro-2-((2-methoxy-4-(2-methyl-2,6-diazaspiro[3.4]octan-6-yl)phenyl)amino)pyrimidin-4-yl)amino)phenyl)dimethyl phosphine oxide]

IC50 (ALK L1196M): 1 to 100 nM | IC50 (ALK C1156Y): 1 to 100 nM | IC50 (EGFR T790M/L858R): 101 to 1000 nM | IC50 (ALK wild-type): 1 to 100 nM
Compound: COc1cc(N2CCC3(CCN(C)CC3)CC2)ncc1Nc1ncc(Cl)c(Nc2ccccc2P(C)(C)=O)n1 [Compound 24, (2-((5-Chloro-2-((4-methoxy-6-(9-methyl-3,9-diazaspiro[5.5]undecan-3-yl)pyridin-3-yl)amino)pyrimidin-4-yl)amino)phenyl)dimethyl phosphine oxide]

IC50 (ALK L1196M): > 1000 nM | IC50 (ALK C1156Y): > 1000 nM | IC50 (EGFR T790M/L858R): > 1000 nM | IC50 (ALK wild-type): > 1000 nM
Compound: COc1cc(N2CCC3(CCN(C)CC3)CC2)ccc1Nc1ncc(Cl)c(Oc2ccccc2P(C)(C)=O)n1 [Compound 19, (2-((5-Chloro-2-((2-methoxy-4-(9-methyl-3,9-diazaspiro[5.5]undecan-3-yl)phenyl)amino)pyrimidin-4-yl)oxy)phenyl)dimethyl phosphine oxide]

IC50 (ALK L1196M): 1 to 100 nM | IC50 (ALK C1156Y): 1 to 100 nM | IC50 (EGFR T790M/L858R): 1 to 100 nM | IC50 (ALK wild-type): 1 to 100 nM
Compound: COc1cc(N2CCC3(CCN(C)CC3)CC2)ccc1Nc1ncc(Cl)c(Nc2ccccc2P(C)(C)=O)n1 [Compound 9, (2-((5-Chloro-2-((2-methoxy-4-(9-methyl-3,9-diazaspiro[5.5]undecan-3-yl)phenyl)amino)pyrimidin-4-yl)amino)phenyl)dimethyl phosphine oxide]
Tumor volume ([2]; 0 days): 371 mm^3 | Tumor volume ([2]; 2 days): 359 mm^3 | Tumor volume ([2]; 6 days): 369 mm^3 | Tumor volume ([2]; 9 days): 301 mm^3 | Tumor volume ([2]; 13 days): 305 mm^3 | Tumor volume ([2]; 16 days): 291 mm^3 | Tumor volume ([2]; 20 days): 203 mm^3 | Tumor volume ([2]; 23 days): 172 mm^3 | Tumor volume ([1]; 3 days): 158 mm^3 | Tumor volume ([1]; 6 days): 108 mm^3 | Tumor volume ([1]; 9 days): 82 mm^3 | Tumor volume ([1]; 12 days): 58 mm^3 | Tumor volume ([1]; 16 days): 48 mm^3 | Tumor volume ([1]; 19 days): 46 mm^3 | Tumor volume ([1]; 23 days): 43 mm^3 | Tumor volume ([3]; 0 day, dosage 3 mg/Kg orally once a day): 502 mm^3 | Tumor volume ([3]; 0 day, dosage 10 mg/Kg orally once a day): 502 mm^3 | Tumor volume ([3]; 3 days, dosage 3 mg/Kg orally once a day): 722 mm^3 | Tumor volume ([3]; 3 days, dosage 10 mg/Kg orally once a day): 557 mm^3 | Tumor volume ([3]; 7 days, dosage 3 mg/Kg orally once a day): 859 mm^3 | Tumor volume ([3]; 7 days, dosage 10 mg/Kg orally once a day): 416 mm^3 | Tumor volume ([3]; 10 days, dosage 3 mg/Kg orally once a day): 1101 mm^3 | Tumor volume ([3]; 10 days, dosage 10 mg/Kg orally once a day): 261 mm^3 | Tumor volume ([3]; 13 days, dosage 3 mg/Kg orally once a day): 1218 mm^3 | Tumor volume ([3]; 13 days, dosage 10 mg/Kg orally once a day): 196 mm^3 | Tumor volume ([3]; 17 days, dosage 3 mg/Kg orally once a day): 1441 mm^3 | Tumor volume ([3]; 17 days, dosage 10 mg/Kg orally once a day): 133 mm^3 | Tumor volume ([3]; 19 days, dosage 3 mg/Kg orally once a day): 1521 mm^3 | Tumor volume ([3]; 19 days, dosage 10 mg/Kg orally once a day): 102 mm^3
